The values below come from patent US20200375992A1, “PHARMACEUTICAL COMPOSITION AND USE FOR APPLYING PALBOCICLIB IN DISEASE TREATMENT OF PATIENT AND INHIBITION OF PI3K ACTIVITY” (Chang Gung University, priority 2019, published 2020).

Test [1] concerns the target PI3K p110α/p85α (Homo sapiens, UniProt P42336). The test is described as follows: PI3K p110α/p85α enzymatic activity, Kinase-Glo Luminescent Kinase Assay. The class given is biochemical. The note with it: 3 μM, 10 μM and 30 μM of Palbociclib; p<0.001 compared with control; activity decreased with increasing concentration; n=6; FIG. 1A. The protocol:
(§1) Palbociclib was dissolved in ddH2O (as solvent) and then added to the reagents which contain PI3K p110α/p85α (50 ng/ml), PI3K p110β/p85α (150 ng/ml), or PI3K p110δ/p85α (50 ng/ml). The final concentration of Palbociclib was 0.1 to 30 μM. Then, the mixtures were incubated for 10 minutes at 25° C. The reagent which was added by ddH2O (solvent, marked as “−” in FIGS. 1A-1C) instead of Palbociclib was as a control in this experiment. 2.5X ATP/substrate was added to each reagent and then further incubated for 60 minutes. Finally, enzymatic activities of PI3K were analyzed according to the user manual of Kinase-Glo® Luminescent Kinase Assays (Promega Corporation, catalog number V1690) and luminometer (TECAN infinite 200 Pro) by using Kinase-Glo® Luminescent Kinase Assays.
A general note: Kinase-Glo measures the ATP left after a reaction by luminescence.

Test [2] deals with PI3K p110β/p85α (Homo sapiens, UniProt P42338). As to the kind of experiment: PI3K p110β/p85α enzymatic activity, Kinase-Glo Luminescent Kinase Assay. The class given is biochemical. The following applies: 3 μM, 10 μM and 30 μM of Palbociclib; p<0.001 compared with control; activity decreased with increasing concentration; n=6; FIG. 1B. The protocol:
as §1

In test [3] the target is PI3K p110δ/p85α (Homo sapiens, UniProt O00329). As to the kind of experiment: PI3K p110δ/p85α enzymatic activity, Kinase-Glo Luminescent Kinase Assay. The class given is biochemical. The note with it: 0.1 μM, 1 μM and 10 μM of Palbociclib; p<0.001 compared with control; activity decreased with increasing concentration; n=6; FIG. 1C. The protocol: as §1
Chain of PI3K p110δ/p85α (O00329 whole entry): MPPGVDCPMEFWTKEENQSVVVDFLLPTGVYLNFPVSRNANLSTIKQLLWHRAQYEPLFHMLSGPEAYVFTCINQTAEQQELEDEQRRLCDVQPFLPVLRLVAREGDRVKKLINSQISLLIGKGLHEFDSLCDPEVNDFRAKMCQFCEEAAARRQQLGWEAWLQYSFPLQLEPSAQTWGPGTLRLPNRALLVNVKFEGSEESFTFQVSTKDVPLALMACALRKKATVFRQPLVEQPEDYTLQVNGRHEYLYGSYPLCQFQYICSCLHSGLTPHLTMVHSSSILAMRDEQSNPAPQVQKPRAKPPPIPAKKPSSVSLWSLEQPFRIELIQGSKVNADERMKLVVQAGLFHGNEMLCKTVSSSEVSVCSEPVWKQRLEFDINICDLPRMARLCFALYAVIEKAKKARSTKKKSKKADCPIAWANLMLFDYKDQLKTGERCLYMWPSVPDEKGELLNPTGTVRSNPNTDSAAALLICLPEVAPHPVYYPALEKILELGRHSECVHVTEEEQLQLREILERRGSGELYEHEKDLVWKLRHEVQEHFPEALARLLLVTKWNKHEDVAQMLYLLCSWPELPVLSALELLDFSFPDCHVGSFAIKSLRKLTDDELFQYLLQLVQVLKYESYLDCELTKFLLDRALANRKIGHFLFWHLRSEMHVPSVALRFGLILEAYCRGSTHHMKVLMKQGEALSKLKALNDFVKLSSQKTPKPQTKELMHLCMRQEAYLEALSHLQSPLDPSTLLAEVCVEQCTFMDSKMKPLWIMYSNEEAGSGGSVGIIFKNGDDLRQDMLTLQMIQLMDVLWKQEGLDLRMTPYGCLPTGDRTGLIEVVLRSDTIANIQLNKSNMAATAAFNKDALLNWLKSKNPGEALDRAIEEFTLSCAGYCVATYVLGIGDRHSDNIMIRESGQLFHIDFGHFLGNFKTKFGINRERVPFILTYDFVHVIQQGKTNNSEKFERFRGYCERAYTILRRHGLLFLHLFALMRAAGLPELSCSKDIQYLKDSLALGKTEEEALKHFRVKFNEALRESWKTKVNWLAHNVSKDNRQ
Chain of PI3K p110δ/p85α (P27986 whole entry partner): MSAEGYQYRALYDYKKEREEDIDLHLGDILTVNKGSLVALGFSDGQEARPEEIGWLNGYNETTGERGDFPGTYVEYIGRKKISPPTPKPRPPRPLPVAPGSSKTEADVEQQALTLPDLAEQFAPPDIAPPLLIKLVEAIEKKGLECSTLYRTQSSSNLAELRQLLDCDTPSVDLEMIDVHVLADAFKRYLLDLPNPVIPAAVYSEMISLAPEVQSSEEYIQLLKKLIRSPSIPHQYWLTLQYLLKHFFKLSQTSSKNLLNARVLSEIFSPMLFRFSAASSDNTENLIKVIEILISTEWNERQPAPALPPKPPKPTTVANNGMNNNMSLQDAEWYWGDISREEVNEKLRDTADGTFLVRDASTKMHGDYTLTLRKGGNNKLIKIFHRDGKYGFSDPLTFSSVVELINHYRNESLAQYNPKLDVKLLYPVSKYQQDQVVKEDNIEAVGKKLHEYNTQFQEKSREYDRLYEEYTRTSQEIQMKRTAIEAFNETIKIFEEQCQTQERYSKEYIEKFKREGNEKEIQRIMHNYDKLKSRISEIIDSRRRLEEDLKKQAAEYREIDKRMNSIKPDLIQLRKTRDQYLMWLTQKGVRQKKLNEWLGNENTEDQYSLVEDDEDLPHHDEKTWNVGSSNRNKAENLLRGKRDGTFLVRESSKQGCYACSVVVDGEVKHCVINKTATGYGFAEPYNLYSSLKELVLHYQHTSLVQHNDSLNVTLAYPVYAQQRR
The test system of test [4] is fMLF-stimulated neutrophils. As to the kind of experiment: Superoxide anion generation in fMLF-stimulated neutrophils (ferricytochrome c reduction, OD550). The class given is cell-based. The note with it: 1 μM, 3 μM and 10 μM of Palbociclib; human neutrophils stimulated with fMLF (0.1 μM)/cytochalasin B; compared with control; decreased with increasing concentration; FIG. 2A. The method, then:
(§2) The informed consent to participate which was approved by the Institutional Review Board are signed by the donors. 50 mL of blood was collected from the median cubital vein of each donor by sterile vacutainer, and was used to isolate neutrophils for the following experiments.
(§3) Human neutrophils (isolated from whole blood of donors) were incubated with ddH2O (as solvent, marked as “−” in the groups at X-axis in FIGS. 2A and 2B) or Palbociclib (0.3-10 μM, dissolved in ddH2O) for 5 minutes, and then stimulated the neutrophils with or without fMLF (0.1 μM)/cytochalasin B (CB, 1 μg/ml) for another 10 minutes to activate the neutrophils. The absorbances (OD550 and OD450) of the reaction mixture were then measured by a spectrophotometer at OD 550 nm and OD 450 nm. The reading of OD550 is used to detect the reduction of ferricytochrome c, which indicates the amount of superoxide anion. The reading of OD450 is used to detect the status of Methoxysuccinyl-Ala-Ala-Val-p-nitroanilide (which is a specific substrate of elastase) affected by elastase, which indicates the release amount and activity of elastase. Cytochalasin B was sold by Sigma-Aldrich, catalog number #2506; fMLF was sold by Sigma-Aldrich, catalog number #454454; model number of the spectrophotometer is HITACHI U-3010. […]

Test [5] relates to fMLF-stimulated neutrophils. As to the kind of experiment: Elastase release in fMLF-stimulated neutrophils (Methoxysuccinyl-Ala-Ala-Val-p-nitroanilide, OD450). The class given is cell-based. The following applies: 3 μM and 10 μM of Palbociclib; human neutrophils stimulated with fMLF (0.1 μM)/cytochalasin B; compared with control; decreased with increasing concentration; FIG. 2B. The protocol:
as §2, §3

For test [6], the system named is IMQ-treated mice. The test is described as follows: Psoriasis-like symptoms in IMQ-treated mice. The class given is in vivo, Male BALB/c mice. The protocol:
500 μg of Palbociclib was dissolved in 100 μl of 60% ethanol to make a pharmaceutical composition. The Palbociclib concentration of the pharmaceutical composition was 500 μg/100 μl and used in the subsequent animal experimental example 4. Male BALB/c mice (7-9 weeks of age, the body weight of each mouse is about 20 g) were divided into different groups, and each group has 6 mice. Each mouse was epilation on the back and then treated with 100 μl of solvent (60% ethanol) or 100 μl of the pharmaceutical composition prepared in example 3 (the concentration of Palbociclib is 25 mg/kg of body weight) by applying on the nude back skin before topical treatment of imiquimod (IMQ, sold by 3M Health Care Limited). And then applying with or without IMQ on the nude back skin of mice to cause psoriasis-like symptom. Each treatment was given once per day for 5 consecutive days. The mice which applying solvent and IMQ is played as the control. The mice which merely applying solvent or Palbociclib without IMQ are played as the blank 1 and blank 2.

Chain of PI3K p110β/p85α (P42338 whole entry): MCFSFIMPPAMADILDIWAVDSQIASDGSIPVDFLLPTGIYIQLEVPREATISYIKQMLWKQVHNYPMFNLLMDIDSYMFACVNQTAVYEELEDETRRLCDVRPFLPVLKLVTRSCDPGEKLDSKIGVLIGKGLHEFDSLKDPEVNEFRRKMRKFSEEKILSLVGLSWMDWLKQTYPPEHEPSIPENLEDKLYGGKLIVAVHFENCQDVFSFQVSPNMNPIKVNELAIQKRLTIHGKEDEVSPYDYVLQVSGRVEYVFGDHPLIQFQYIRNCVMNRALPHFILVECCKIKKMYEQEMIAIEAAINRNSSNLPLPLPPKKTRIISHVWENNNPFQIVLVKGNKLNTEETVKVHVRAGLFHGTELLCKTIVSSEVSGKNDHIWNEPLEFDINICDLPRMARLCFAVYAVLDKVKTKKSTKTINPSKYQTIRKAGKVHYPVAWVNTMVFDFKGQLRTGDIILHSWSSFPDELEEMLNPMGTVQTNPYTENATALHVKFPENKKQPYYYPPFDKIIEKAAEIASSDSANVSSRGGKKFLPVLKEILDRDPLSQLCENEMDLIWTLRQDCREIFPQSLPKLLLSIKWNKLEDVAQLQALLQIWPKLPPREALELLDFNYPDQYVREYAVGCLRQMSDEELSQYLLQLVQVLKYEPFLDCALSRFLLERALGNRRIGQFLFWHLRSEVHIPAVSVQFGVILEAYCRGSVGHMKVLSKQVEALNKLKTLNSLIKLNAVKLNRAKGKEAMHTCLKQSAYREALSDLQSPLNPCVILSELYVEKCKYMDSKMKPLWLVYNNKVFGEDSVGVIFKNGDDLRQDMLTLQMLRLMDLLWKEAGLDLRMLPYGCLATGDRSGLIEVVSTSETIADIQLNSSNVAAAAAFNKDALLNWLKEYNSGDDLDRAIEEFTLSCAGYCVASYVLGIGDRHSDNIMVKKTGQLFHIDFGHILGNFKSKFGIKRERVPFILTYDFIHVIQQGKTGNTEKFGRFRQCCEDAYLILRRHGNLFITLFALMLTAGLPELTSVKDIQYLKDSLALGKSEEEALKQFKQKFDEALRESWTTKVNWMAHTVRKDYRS
Chain of PI3K p110β/p85α (P27986 whole entry partner): as the sequence (P27986 whole entry partner) above
Chain of PI3K p110α/p85α (P42336 whole entry): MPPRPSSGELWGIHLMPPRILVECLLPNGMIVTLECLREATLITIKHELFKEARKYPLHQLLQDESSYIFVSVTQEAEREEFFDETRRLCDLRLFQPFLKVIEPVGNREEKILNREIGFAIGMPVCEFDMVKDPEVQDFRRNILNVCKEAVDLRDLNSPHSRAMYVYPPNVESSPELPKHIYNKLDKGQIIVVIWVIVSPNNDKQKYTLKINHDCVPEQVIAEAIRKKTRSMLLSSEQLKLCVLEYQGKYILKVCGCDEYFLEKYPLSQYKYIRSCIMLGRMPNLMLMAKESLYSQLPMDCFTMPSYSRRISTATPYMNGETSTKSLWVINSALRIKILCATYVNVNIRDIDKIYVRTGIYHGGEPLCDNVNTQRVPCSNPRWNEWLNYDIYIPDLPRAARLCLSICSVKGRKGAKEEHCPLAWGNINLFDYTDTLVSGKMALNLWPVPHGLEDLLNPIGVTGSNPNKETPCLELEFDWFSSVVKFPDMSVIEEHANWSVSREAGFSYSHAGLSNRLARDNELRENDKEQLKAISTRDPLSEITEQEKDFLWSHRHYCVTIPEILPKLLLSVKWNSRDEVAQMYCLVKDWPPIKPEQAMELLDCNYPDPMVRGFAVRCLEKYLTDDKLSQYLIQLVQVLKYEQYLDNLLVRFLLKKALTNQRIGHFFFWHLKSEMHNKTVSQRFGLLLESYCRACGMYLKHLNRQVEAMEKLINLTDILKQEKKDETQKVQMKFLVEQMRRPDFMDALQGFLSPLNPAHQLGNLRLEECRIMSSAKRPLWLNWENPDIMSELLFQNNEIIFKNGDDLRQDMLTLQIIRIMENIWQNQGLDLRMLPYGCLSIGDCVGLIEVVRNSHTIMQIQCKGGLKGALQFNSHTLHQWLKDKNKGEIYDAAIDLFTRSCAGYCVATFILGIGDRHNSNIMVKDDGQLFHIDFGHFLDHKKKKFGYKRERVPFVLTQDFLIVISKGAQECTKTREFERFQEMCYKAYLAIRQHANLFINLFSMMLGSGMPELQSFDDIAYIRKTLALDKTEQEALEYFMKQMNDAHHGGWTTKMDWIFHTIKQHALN
Chain of PI3K p110α/p85α (P27986 whole entry partner): as the sequence (P27986 whole entry partner) above

As for `CC(=O)c1c(C)c2cnc(Nc3ccc(N4CCNCC4)cn3)nc2n(C2CCCC2)c1=O` [Palbociclib, 6-acetyl-8-cyclopentyl-5-methyl-2-((5-(piperazin-1-yl)pyridin-2-yl)amino)pyrido [2,3-d]pyrimidin-7(8H)-one], in test [1], the “PI3K p110α/p85α activity” value is “significantly inhibit”. Also, the “PI3K p110β/p85α activity” value in test [2] is on record as “significantly inhibit”. For the same compound, the “PI3K p110δ/p85α activity” value in test [3] was “significantly inhibit”. Moreover, the “generation of superoxide anion” value in test [4] is on record as “significantly restrict”. Moreover, in test [5], the release of elastase result is given as “significantly restrict”. For the same compound, the “psoriasis-like symptoms (enlarged skin photos by handheld digital microscope, FIG. 3B)” value in test [6] (Palbociclib 25 mg/kg topical on back skin and IMQ, once per day, after the treatment in 5th day, control shows symptoms from 3rd day) is recorded as “not observed”. In addition, in test [6] (Palbociclib 25 mg/kg topical on back skin then IMQ, once per day for 5 days, compared with control (solvent and IMQ), 5th day), the “psoriasis-like symptoms (skin photos, FIG. 3A)” value was “significantly improved”.
